Data on 21 compounds can be found in patent US20250346574A1, “PYRIDINYL SUBSTITUTED OXOISOINDOLINE COMPOUNDS FOR THE TREATMENT OF CANCER” (Bristol-Myers Squibb Company, priority 2021, published 2025).

Helios, sequence (Q9UKS7 whole entry): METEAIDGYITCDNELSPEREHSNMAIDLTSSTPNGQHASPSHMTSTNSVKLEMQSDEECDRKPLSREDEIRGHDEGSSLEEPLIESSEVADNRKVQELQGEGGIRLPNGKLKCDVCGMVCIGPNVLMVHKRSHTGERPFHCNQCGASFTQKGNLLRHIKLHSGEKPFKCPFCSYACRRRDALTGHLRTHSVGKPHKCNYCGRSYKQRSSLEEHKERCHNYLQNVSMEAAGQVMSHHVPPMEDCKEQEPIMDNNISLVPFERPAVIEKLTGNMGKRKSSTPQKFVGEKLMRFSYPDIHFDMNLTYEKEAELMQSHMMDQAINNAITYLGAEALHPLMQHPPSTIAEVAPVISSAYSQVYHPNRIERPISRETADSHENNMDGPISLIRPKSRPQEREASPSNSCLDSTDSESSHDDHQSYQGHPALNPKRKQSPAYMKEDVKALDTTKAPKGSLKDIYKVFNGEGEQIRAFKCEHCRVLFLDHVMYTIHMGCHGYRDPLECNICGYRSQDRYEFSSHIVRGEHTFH
Helios, sequence (Q96SW2 whole entry): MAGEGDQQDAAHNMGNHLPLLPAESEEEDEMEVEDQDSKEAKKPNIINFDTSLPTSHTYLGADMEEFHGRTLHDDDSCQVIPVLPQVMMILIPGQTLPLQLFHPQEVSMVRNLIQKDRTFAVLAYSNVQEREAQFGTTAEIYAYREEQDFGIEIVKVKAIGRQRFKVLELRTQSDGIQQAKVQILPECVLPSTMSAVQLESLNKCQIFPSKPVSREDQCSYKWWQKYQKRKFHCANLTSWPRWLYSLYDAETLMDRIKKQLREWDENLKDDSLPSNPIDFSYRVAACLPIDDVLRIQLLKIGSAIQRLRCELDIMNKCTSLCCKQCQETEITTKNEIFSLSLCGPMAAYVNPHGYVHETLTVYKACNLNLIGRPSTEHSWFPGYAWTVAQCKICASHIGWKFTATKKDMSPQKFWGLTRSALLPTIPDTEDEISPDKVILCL
Helios, sequence (Q16531 whole entry partner): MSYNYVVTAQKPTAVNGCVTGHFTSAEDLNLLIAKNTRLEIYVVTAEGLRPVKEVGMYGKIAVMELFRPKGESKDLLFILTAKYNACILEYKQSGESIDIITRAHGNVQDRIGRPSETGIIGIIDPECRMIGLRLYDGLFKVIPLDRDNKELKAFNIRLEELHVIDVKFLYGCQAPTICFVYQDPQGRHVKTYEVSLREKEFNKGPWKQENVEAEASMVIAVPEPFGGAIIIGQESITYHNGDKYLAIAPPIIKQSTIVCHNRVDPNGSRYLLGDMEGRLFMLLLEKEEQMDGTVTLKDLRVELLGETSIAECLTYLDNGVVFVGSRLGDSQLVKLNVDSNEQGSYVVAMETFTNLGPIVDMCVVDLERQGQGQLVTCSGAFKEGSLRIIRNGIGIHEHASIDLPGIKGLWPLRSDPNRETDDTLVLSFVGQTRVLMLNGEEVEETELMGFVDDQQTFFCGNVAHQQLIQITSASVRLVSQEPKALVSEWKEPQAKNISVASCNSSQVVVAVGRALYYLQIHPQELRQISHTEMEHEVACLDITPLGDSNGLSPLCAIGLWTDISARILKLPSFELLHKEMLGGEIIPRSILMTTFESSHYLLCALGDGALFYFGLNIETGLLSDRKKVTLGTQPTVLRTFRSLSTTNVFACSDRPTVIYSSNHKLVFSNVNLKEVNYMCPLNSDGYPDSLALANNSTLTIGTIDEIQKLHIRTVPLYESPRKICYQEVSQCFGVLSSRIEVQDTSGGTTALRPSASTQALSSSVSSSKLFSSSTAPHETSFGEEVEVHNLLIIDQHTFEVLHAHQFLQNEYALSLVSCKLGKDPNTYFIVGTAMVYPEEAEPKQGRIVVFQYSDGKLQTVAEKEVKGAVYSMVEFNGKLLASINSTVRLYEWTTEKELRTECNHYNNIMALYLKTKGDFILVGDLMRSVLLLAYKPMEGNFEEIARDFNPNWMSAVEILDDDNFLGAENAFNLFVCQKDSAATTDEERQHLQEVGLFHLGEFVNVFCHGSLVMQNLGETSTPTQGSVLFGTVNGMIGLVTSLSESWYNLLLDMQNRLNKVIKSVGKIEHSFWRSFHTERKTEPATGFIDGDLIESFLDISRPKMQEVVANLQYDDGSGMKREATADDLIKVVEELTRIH

This assay has as its target Helios (Homo sapiens, UniProt Q96SW2+Q9UKS7). In words: Helios Human T Regulatory Cells Degradation Assay. The following applies: cryopreserved human T regulatory cells, incubated 20 hours, Helios-APC antibody staining, flow cytometry; read-out: hTreg Helios DC50. Details: fluorescently labelled antibodies against Helios in 1× Permeabilization buffer; endogenous in cells; host or cells: cryopreserved human T regulatory cells. The class given is cell-based. In outline: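 Cryopreserved human Treg cells thawed in RPMI+10% FBS+20 ng/mL IL-2, rested 3 h, then incubated with compound 20 hours at 37° C, 5% CO2. Near-IR viability stain, permeabilization, flow cytometry read-out.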
Background: A flow cytometer gives signals particle by particle.
In general, DC50 refers to the concentration at which degradation of the target reaches its halfway point. Regarding `CC(C)(C)OC(=O)N1CCC12CCCN(Cc1ccnc(-c3ccc4c(c3)CN(C3CCC(=O)NC3=O)C4=O)c1F)C2` (stereo not drawn) [Example 216, tert-butyl 6-((2-(2-(2,6-dioxopiperidin-3-yl)-1-oxoisoindolin-5-yl)-3-fluoropyridin-4-yl)methyl)-1,6-diazaspiro[3.5]nonane-1-carboxylate], the DC50 is ≥ 10000 nM.
In the case of `C[C@@](O)(c1ccccc1)[C@H]1CCCN1Cc1ccnc(-c2ccc3c(c2)CN(C2CCC(=O)NC2=O)C3=O)c1F` (stereo partly drawn) [Example 217, 3-(5-(3-fluoro-4-(((R)-2-((R)-1-hydroxy-1-phenylethyl)pyrrolidin-1-yl)methyl)pyridin-2-yl)-1-oxoisoindolin-2-yl)piperidine-2,6-dione] it was 390 nM; in that of `C[C@](O)(c1ccccc1)[C@H]1CCCN1Cc1ccnc(-c2ccc3c(c2)CN(C2CCC(=O)NC2=O)C3=O)c1F` (stereo partly drawn) [Example 218, 3-(5-(3-fluoro-4-(((R)-2-((S)-1-hydroxy-1-phenylethyl)pyrrolidin-1-yl)methyl)pyridin-2-yl)-1-oxoisoindolin-2-yl)piperidine-2,6-dione], 4130 nM; in that of `O=C1CCC(N2Cc3cc(-c4nccc(CN5CC6CC(C5)C6O)c4F)ccc3C2=O)C(=O)N1` (stereo not drawn) [Example 219, 3-(5-(3-fluoro-4-((6-hydroxy-3-azabicyclo[3.1.1]heptan-3-yl)methyl)pyridin-2-yl)-1-oxoisoindolin-2-yl)piperidine-2,6-dione], 9.8 nM.
For the compound `CC1(O)CCCN(Cc2ccnc(-c3ccc4c(c3)CN(C3CCC(=O)NC3=O)C4=O)c2F)CC1` (stereo not drawn) [Example 220, 3-(5-(3-fluoro-4-((4-hydroxy-4-methylazepan-1-yl)methyl)pyridin-2-yl)-1-oxoisoindolin-2-yl)piperidine-2,6-dione], the DC50 worked out at 34.2 nM.
Turning to `CC1(C)CN(Cc2ccnc(-c3ccc4c(c3)CN(C3CCC(=O)NC3=O)C4=O)c2F)CCC1O` (stereo not drawn) [Example 221, 3-(5-(3-fluoro-4-((4-hydroxy-3,3-dimethylpiperidin-1-yl)methyl)pyridin-2-yl)-1-oxoisoindolin-2-yl)piperidine-2,6-dione], the DC50 amounted to 13900 nM.
Turning to `O=C1CCC(N2Cc3cc(-c4nccc(CN5CCC6(CC5)CC(O)CO6)c4F)ccc3C2=O)C(=O)N1` (stereo not drawn) [Example 222, 3-(5-(3-fluoro-4-((3-hydroxy-1-oxa-8-azaspiro[4.5]decan-8-yl)methyl)pyridin-2-yl)-1-oxoisoindolin-2-yl)piperidine-2,6-dione], the DC50 was 2760 nM.
On to `CC1(O)CN(Cc2ccnc(-c3ccc4c(c3)CN(C3CCC(=O)NC3=O)C4=O)c2F)C1` (stereo not drawn) [Example 224, 3-(5-(3-fluoro-4-((3-hydroxy-3-methylazetidin-1-yl)methyl)pyridin-2-yl)-1-oxoisoindolin-2-yl)piperidine-2,6-dione], for which the DC50 was found to be 72.9 nM.
For the compound `O=C1CCC(N2Cc3cc(-c4nccc(CN5CCC6(CC5)CC(O)C6)c4F)ccc3C2=O)C(=O)N1` (stereo not drawn) [Example 225, 3-(5-(3-fluoro-4-((2-hydroxy-7-azaspiro[3.5]nonan-7-yl)methyl)pyridin-2-yl)-1-oxoisoindolin-2-yl)piperidine-2,6-dione], the DC50 worked out at 29.3 nM.
`O=C1CCC(N2Cc3cc(-c4nccc(CN5CCC(O)CC5)c4F)ccc3C2=O)C(=O)N1` (stereo not drawn) [Example 226, 3-(5-(3-fluoro-4-((4-hydroxypiperidin-1-yl)methyl)pyridin-2-yl)-1-oxoisoindolin-2-yl)piperidine-2,6-dione]: the DC50 came to 51.5 nM.
On to `CC(=O)N1CC2CCC(C1)N2Cc1ccnc(-c2ccc3c(c2)CN(C2CCC(=O)NC2=O)C3=O)c1F` (stereo not drawn) [Example 227, 3-(5-(4-((3-acetyl-3,8-diazabicyclo[3.2.1]octan-8-yl)methyl)-3-fluoropyridin-2-yl)-1-oxoisoindolin-2-yl)piperidine-2,6-dione], for which the DC50 was ≥ 10000 nM.
Take `C[C@@H]1CN(Cc2ccnc(-c3ccc4c(c3)CN(C3CCC(=O)NC3=O)C4=O)c2F)C[C@H]1O` (stereo partly drawn) [Example 232, 3-(5-(3-fluoro-4-(((3S,4R)-3-hydroxy-4-methylpyrrolidin-1-yl)methyl)pyridin-2-yl)-1-oxoisoindolin-2-yl)piperidine-2,6-dione]: the DC50 was determined as 38.6 nM.
In the case of `O=C1CCC(N2Cc3cc(-c4nccc(CN5CCC(O)(c6ccc(F)cc6)C5)c4F)ccc3C2=O)C(=O)N1` (stereo not drawn) [Example 234, 3-(5-(3-fluoro-4-((3-(4-fluorophenyl)-3-hydroxypyrrolidin-1-yl)methyl)pyridin-2-yl)-1-oxoisoindolin-2-yl)piperidine-2,6-dione] it was 8410 nM; in that of `O=C1CCC(N2Cc3cc(-c4nccc(CN5CCC(O)(Cc6ccccc6)CC5)c4F)ccc3C2=O)C(=O)N1` (stereo not drawn) [Example 235, 3-(5-(4-((4-benzyl-4-hydroxypiperidin-1-yl)methyl)-3-fluoropyridin-2-yl)-1-oxoisoindolin-2-yl)piperidine-2,6-dione], 330 nM; in that of `CC(C)(C)OC(=O)N[C@H]1C[C@H](F)CN(Cc2ccnc(-c3ccc4c(c3)CN(C3CCC(=O)NC3=O)C4=O)c2F)C1` (stereo partly drawn) [Example 236, tert-butyl ((3S,5S)-1-((2-(2-(2,6-dioxopiperidin-3-yl)-1-oxoisoindolin-5-yl)-3-fluoropyridin-4-yl)methyl)-5-fluoropiperidin-3-yl)carbamate], ≥ 10000 nM.
For the compound `CC1CC(O)(c2ccc(F)cc2)CN1Cc1ccnc(-c2ccc3c(c2)CN(C2CCC(=O)NC2=O)C3=O)c1F` (stereo not drawn) [Example 237, 3-(5-(3-fluoro-4-((4-(4-fluorophenyl)-4-hydroxy-2-methylpyrrolidin-1-yl)methyl)pyridin-2-yl)-1-oxoisoindolin-2-yl)piperidine-2,6-dione], the DC50 is ≥ 10000 nM.
As to `O=C1CCC(N2Cc3cc(-c4nccc(CN5CCC(O)(c6ccccc6Cl)C5)c4F)ccc3C2=O)C(=O)N1` (stereo not drawn) [Example 238, 3-(5-(4-((3-(2-chlorophenyl)-3-hydroxypyrrolidin-1-yl)methyl)-3-fluoropyridin-2-yl)-1-oxoisoindolin-2-yl)piperidine-2,6-dione], the DC50 turned out to be 172 nM.
In the case of `Cc1cc(C2CCCN2Cc2ccnc(-c3ccc4c(c3)CN(C3CCC(=O)NC3=O)C4=O)c2F)on1` (stereo not drawn) [Example 244, 3-(5-(3-fluoro-4-((2-(3-methylisoxazol-5-yl)pyrrolidin-1-yl)methyl)pyridin-2-yl)-1-oxoisoindolin-2-yl)piperidine-2,6-dione], the DC50 was 242 nM.
In the case of `COC(=O)N[C@H]1CN(Cc2ccnc(-c3ccc4c(c3)CN(C3CCC(=O)NC3=O)C4=O)c2F)C[C@@H]1O` (stereo partly drawn) [Example 248, methyl ((3S,4S)-1-((2-(2-(2,6-dioxopiperidin-3-yl)-1-oxoisoindolin-5-yl)-3-fluoropyridin-4-yl)methyl)-4-hydroxypyrrolidin-3-yl)carbamate], the DC50 was ≥ 10000 nM.
Regarding `O=C1CCC(N2Cc3cc(-c4nccc(CN5CCC6(CC5)OCc5ccccc56)c4F)ccc3C2=O)C(=O)N1` (stereo not drawn) [Example 249, 3-(5-(4-((3H-spiro[isobenzofuran-1,4′-piperidin]-1′-yl)methyl)-3-fluoropyridin-2-yl)-1-oxoisoindolin-2-yl)piperidine-2,6-dione], the 50% degradation concentration (DC50) is ≥ 10000 nM.
Turning to `O=C1CCC(N2Cc3cc(-c4nccc(CN5CCCC(O)(c6ccccc6)C5)c4F)ccc3C2=O)C(=O)N1` (stereo not drawn) [Example 250, 3-(5-(3-fluoro-4-((3-hydroxy-3-phenylpiperidin-1-yl)methyl)pyridin-2-yl)-1-oxoisoindolin-2-yl)piperidine-2,6-dione], the DC50 was ≥ 10000 nM.
